# In patent US20220228112A1, “MEDIUM FOR CULTURING HEPATOCYTE, METHOD OF PRODUCING HEPATOCYTE, AND HEPATOCYTE” (FUJIFILM Corporation, priority 2019, published 2022):
# Tested on: human iPS cell-derived hepatocytes
# Assay: P450-Glo CYP3A4 assay, CYP3A4 activity value per cell
# Assay type: cell-based
# Conditions: FIG. 1C; added to medium that does not contain FBS, EGF and A83-01; culture period of 1 week
# Method: For the cell culture medium, to a medium obtained by mixing equal amounts of a DMEM/F12 basal medium and an RPMI 1640 basal medium, each of the components was added so that the concentration thereof was to be the following final concentration.
# Further, to the above composition, the following components were added in combination to prepare culture media for various hepatocytes,
# Using the above-described various media, human iPS cell-derived hepatocytes (FUJIFILM Wako Pure Chemical Corporation, Cat #: C1026) were seeded on a collagen-coated 96-well plate at 1×10^5 cells per well and cultured in an incubator at 37° C. and 5% carbon dioxide gas, and the medium was exchanged every 24 hours. The luminescence intensity by a P450-Glo CYP3A4 assay (Promega Corporation) was measured by using an EnSpire multimode plate reader (PerkinElmer, Inc.) and corrected by the number of cells in the well to calculate the CYP3A4 activity value per cell in the culture period of 1 week.
smiles,measurement,value
NC(=O)c1cccnc1 [nicotinamide],effect on function of hepatocytes (CYP3A4 activity per cell),positive factors for improving the function of hepatocytes
